From US20170008888A1 (KYORIN PHARMACEUTICAL CO., LTD., priority 2014, published 2017)

Assays:
Format in all cases: binding
ABL or ARG = experiment: Probe-based (AX9989) kinase profiling in Jurkat lysate: ABL or ARG
Summary of the method: (§1)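 Jurkat lysate (50 mM HEPES pH 7.5, 150 mM NaCl, 0.1% Triton X-100, 20 mM MnCl2) pre-incubated 15 min with compound at room temperature, then labeled with 5 μM acyl phosphate ATP probe AX9989. Tryptic probe-labeled peptides streptavidin-captured and quantified by LC/MS; percent inhibition from decreased fragment intensity versus untreated.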

ERK5 = target: T1, ERK5 (Homo sapiens, UniProt Q13164); experiment: Probe-based (AX9989 acyl phosphate ATP probe) kinase profiling in Jurkat lysate: ERK5; details: for IC50: calculated from percent inhibition of AX9989 labeling and the screening concentration, Jurkat lysate; for inhibition at 1 µM: screening concentration 1.0 μM; for inhibition at 1 µM / inhibition at 0.1 µM: read-out: Kinase inhibition % at indicated screening concentration: ERK5; for inhibition at 0.1 µM: screening concentration 0.1 μM
T1 construct: screened for activity against several kinases in Jurkat cells; endogenous in cells; host or cells: Jurkat cell lysate
Summary of the method: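 ERK5 IC50 values came from percent inhibition at the screening concentration, measured as loss of LC/MS signal of probe-labelled active-site peptides. Compound was added for 15 min at room temperature to Jurkat lysate (5 mg/ml, 20 mM MnCl2) before labelling with AX9989 ATP acyl phosphate probe at 5 μM.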

ACK = target: T2, ACK (Homo sapiens, UniProt Q07912); experiment: Probe-based (AX9989) kinase profiling in Jurkat lysate: ACK; details: read-out: Kinase inhibition % at indicated screening concentration: ACK; for inhibition at 1 µM: screening concentration 1.0 μM; for inhibition at 0.1 µM: screening concentration 0.1 μM
T2 construct: screened for activity against several kinases in Jurkat cells; endogenous in cells; host or cells: Jurkat cell lysate
Summary of the method: as §1

JAK1 = target: T3, JAK1 (Homo sapiens, UniProt P23458); experiment: Probe-based (AX9989) kinase profiling in Jurkat lysate: JAK1; details: read-out: Kinase inhibition % at indicated screening concentration: JAK1; for inhibition at 1 µM: screening concentration 1.0 μM; for inhibition at 0.1 µM: screening concentration 0.1 μM
T3 construct: screened for activity against several kinases in Jurkat cells; endogenous in cells; host or cells: Jurkat cell lysate
Summary of the method: as §1

TAO2 = target: T4, TAO2 (Homo sapiens, UniProt Q9UL54); experiment: Probe-based (AX9989) kinase profiling in Jurkat lysate: TAO2; details: read-out: Kinase inhibition % at indicated screening concentration: TAO2; for inhibition at 1 µM: screening concentration 1.0 μM; for inhibition at 0.1 µM: screening concentration 0.1 μM
T4 construct: screened for activity against several kinases in Jurkat cells; endogenous in cells; host or cells: Jurkat cell lysate
T4 sequence (Q9UL54 1-1235): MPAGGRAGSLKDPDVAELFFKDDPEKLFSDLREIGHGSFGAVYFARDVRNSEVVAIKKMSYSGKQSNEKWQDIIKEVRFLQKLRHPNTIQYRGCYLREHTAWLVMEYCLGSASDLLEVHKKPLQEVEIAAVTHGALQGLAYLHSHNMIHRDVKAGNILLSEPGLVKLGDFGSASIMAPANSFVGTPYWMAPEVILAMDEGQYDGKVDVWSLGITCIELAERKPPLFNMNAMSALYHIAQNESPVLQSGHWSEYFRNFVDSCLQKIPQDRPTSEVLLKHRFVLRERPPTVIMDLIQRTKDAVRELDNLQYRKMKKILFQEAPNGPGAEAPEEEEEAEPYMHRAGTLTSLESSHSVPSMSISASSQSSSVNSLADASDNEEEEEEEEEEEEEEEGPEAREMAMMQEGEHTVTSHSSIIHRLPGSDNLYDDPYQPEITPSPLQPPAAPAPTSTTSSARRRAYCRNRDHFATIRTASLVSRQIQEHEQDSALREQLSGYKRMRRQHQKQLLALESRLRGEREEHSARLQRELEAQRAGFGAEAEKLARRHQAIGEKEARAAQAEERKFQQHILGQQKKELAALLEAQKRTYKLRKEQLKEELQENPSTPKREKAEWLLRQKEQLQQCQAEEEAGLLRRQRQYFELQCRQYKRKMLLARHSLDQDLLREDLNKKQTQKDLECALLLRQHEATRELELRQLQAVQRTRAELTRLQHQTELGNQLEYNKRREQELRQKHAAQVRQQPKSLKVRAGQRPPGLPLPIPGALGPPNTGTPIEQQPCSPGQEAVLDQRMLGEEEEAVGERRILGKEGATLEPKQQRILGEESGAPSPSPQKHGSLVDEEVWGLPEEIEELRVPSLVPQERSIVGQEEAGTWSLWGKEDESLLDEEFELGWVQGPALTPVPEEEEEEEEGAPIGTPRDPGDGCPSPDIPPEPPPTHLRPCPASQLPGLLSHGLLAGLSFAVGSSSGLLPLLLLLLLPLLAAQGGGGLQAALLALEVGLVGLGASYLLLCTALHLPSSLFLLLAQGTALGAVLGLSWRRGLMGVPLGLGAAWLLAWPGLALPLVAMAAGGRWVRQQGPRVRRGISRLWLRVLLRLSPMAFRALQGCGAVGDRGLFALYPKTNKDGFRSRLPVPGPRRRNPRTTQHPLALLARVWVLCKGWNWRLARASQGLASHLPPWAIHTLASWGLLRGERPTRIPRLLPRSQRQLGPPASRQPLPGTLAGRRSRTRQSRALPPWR
Summary of the method: as §1

AMPKa1 or AMPKa2 = experiment: Probe-based (AX9989) kinase profiling in Jurkat lysate: AMPKa1 or AMPKa2
Summary of the method: as §1

AurB or AurC = experiment: Probe-based (AX9989) kinase profiling in Jurkat lysate: AurB or AurC
Summary of the method: as §1

AurA = target: T5, AurA (Homo sapiens, UniProt O14965); experiment: Probe-based (AX9989) kinase profiling in Jurkat lysate: AurA; details: read-out: Kinase inhibition % at indicated screening concentration: AurA; for inhibition at 1 µM: screening concentration 1.0 μM; for inhibition at 0.1 µM: screening concentration 0.1 μM
T5 construct: screened for activity against several kinases in Jurkat cells; endogenous in cells; host or cells: Jurkat cell lysate
T5 sequence (O14965 1-403): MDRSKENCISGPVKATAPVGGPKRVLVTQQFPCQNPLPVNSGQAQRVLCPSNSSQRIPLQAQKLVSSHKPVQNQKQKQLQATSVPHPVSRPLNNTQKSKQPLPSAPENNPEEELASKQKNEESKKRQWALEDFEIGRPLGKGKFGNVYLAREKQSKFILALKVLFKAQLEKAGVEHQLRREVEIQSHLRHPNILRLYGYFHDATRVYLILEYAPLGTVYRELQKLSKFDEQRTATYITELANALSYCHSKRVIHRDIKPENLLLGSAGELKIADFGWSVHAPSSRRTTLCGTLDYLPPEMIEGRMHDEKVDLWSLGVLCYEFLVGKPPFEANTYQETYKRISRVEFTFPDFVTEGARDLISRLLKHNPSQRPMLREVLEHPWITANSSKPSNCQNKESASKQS
Summary of the method: as §1

[1] = target: T6, BRD4 bromodomain domain I [BRD4(1)] (Homo sapiens, UniProt O60885); experiment: BRD4 bromodomain domain 1 inhibition assay (TR-FRET); details: screening concentration 10 μM
T6 construct: BRD4 bromodomain domain I [BRD4(1)]; purchased Cayman Chemicals
Procedure: The inhibitory activity of test compounds on the bromodomain, BRD4 bromodomain domain I [BRD4(1)], were determined via TR-FRET after a slight modification of the manufacturer's protocol (Cayman Chemicals, Ann Arbor, Mich.). Briefly, compounds were diluted to a 20× ([…]) concentration in DMSO. 100 nL of 20× compounds were then dry stamped into triplicate wells of black, low volume 384 well plates (Aurora Biotechnologies, Carlsbad, Calif.) using the Mosquito liquid handler (TPP Labtech, Melbourn, UK). 20× compounds were then diluted to a 4× (40 μM) concentration in Assay Buffer to result in 2% DMSO content. […] JQ1 at 10 μM or 0.5% DMSO final concentrations were used as the positive and negative controls, respectively, to set the assay window. The fluorescence was read in a time-resolved format on the Biotec Synergy 2 plate reader by exciting the signal at 340 nm and reading emissions at 620 and 670, using a 100 μs delay and 200 μs read window. […] Briefly, TR-FRET ratio values were normalized to the average TR-FRET ratio value given by 10 μM JQ1. […]

T1 sequence (Q13164 whole entry): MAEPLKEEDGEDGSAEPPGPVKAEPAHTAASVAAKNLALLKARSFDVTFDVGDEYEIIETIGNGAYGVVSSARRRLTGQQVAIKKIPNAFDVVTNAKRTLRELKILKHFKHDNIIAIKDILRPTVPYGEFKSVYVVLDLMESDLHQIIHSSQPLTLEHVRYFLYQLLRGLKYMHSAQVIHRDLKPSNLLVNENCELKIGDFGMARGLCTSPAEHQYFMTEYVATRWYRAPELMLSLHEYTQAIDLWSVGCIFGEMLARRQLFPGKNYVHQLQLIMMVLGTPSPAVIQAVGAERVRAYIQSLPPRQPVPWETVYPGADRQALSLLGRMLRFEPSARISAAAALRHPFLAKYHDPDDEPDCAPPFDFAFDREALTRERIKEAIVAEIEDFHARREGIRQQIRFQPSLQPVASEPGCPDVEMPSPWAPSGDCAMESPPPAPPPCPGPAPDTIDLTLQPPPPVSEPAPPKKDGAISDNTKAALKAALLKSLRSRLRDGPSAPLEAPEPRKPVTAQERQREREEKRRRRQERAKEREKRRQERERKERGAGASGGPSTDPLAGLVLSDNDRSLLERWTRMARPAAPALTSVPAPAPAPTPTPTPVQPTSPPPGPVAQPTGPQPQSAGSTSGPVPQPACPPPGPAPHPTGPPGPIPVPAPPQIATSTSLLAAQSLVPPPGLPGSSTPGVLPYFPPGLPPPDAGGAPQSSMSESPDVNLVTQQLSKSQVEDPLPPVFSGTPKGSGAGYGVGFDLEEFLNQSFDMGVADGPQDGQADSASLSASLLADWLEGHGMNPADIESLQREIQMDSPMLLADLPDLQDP
T2 sequence (Q07912 whole entry): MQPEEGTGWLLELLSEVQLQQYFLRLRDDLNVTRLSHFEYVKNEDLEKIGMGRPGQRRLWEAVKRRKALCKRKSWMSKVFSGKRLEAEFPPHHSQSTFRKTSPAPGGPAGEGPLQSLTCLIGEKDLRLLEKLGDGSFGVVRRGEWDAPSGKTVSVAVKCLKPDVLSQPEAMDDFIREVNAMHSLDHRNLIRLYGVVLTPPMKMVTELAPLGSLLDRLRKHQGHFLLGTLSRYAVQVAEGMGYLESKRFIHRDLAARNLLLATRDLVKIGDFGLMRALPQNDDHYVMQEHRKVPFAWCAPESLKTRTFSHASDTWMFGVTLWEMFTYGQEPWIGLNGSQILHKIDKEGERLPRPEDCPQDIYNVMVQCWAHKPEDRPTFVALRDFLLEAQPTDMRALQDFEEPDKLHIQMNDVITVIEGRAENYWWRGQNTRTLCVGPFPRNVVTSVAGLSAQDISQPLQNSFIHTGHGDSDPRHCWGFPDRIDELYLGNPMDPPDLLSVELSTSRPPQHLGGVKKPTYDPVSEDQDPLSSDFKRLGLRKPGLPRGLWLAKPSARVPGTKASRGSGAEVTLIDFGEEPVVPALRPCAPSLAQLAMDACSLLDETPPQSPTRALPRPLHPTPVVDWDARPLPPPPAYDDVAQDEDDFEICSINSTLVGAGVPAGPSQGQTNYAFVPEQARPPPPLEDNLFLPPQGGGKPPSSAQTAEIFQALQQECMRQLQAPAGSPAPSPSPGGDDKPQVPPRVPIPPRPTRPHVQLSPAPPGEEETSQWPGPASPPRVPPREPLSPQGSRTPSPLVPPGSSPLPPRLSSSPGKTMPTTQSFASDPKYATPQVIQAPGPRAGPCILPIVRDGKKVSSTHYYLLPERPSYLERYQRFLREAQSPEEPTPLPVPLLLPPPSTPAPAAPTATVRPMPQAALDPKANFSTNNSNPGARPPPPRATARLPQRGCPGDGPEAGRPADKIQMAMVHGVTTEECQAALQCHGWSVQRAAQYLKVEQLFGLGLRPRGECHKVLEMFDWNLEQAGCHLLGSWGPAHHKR
T3 sequence (P23458 whole entry): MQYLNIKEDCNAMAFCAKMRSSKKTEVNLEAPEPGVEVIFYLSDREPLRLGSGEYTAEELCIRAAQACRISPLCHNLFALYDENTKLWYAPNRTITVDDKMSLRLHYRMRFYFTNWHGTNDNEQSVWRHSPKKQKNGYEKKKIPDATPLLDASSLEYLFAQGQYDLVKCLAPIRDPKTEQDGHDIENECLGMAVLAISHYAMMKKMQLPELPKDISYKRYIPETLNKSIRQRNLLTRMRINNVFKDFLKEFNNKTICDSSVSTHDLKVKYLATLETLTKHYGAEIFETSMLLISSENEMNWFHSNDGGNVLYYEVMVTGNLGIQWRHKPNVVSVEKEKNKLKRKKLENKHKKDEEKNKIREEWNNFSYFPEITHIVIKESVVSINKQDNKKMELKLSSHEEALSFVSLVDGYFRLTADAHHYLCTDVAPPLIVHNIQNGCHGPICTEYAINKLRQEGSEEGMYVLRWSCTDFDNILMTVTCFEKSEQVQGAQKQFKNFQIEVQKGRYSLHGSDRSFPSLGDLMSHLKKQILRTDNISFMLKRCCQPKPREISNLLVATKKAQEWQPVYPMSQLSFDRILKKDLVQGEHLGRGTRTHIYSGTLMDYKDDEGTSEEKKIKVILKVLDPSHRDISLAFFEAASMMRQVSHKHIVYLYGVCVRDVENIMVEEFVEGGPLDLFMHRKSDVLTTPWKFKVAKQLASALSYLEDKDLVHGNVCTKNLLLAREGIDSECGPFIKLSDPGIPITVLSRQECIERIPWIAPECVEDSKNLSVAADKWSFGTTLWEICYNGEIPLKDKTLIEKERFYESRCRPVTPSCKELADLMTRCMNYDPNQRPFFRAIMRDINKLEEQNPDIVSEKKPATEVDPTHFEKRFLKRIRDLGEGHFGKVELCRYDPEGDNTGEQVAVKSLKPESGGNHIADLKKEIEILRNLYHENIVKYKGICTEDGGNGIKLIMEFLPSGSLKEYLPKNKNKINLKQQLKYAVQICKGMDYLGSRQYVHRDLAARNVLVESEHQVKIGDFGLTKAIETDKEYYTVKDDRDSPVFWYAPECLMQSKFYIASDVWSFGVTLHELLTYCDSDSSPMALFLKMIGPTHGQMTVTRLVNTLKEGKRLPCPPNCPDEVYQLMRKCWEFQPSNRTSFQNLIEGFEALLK

Kinase inhibition % at indicated screening concentration: ABL or ARG (ABL or ARG; screening concentration 1.0 μM) | IC50 (ERK5) | inhibition at 1 µM (ERK5) | inhibition at 1 µM (ACK) | inhibition at 1 µM (JAK1) | inhibition at 1 µM (TAO2) | Kinase inhibition % at indicated screening concentration: AMPKa1 or AMPKa2 (AMPKa1 or AMPKa2; screening concentration 1.0 μM) | Kinase inhibition % at indicated screening concentration: AurB or AurC (AurB or AurC; screening concentration 1.0 μM) | inhibition at 1 µM (AurA) | inhibition at 10 µM [1] | Kinase inhibition % at indicated screening concentration: ABL or ARG (ABL or ARG; screening concentration 0.1 μM) | inhibition at 0.1 µM (ERK5) | inhibition at 0.1 µM (ACK) | inhibition at 0.1 µM (JAK1) | inhibition at 0.1 µM (TAO2) | Kinase inhibition % at indicated screening concentration: AMPKa1 or AMPKa2 (AMPKa1 or AMPKa2; screening concentration 0.1 μM) | Kinase inhibition % at indicated screening concentration: AurB or AurC (AurB or AurC; screening concentration 0.1 μM) | inhibition at 0.1 µM (AurA) | SMILES
E (E is ≦35%) | > 500 nM | 35 to 50% | ≤ 35% | ≤ 35% | ≤ 35% | E (E is ≦35%) | E (E is ≦35%) | ≤ 35% | < 70% |  |  |  |  |  |  |  |  | CN1C(=O)c2ccccc2N(C)c2cc(NC3CCC(C(=O)O)CC3)ncc21 (stereo not shown) [Compound 23]
 | ≤ 50 nM |  |  |  |  |  |  |  | > 85% | E (E is ≦35%) | 75 to 90% | ≤ 35% | ≤ 35% | ≤ 35% | E (E is ≦35%) | E (E is ≦35%) | ≤ 35% | CCOc1cc(C(=O)N2CC[C@@H](NC)C2)ccc1Nc1cc2c(cn1)N(C)C(=O)c1ccccc1N2C [Compound 26]
E (E is ≦35%) | 101 to 500 nM | 50 to 75% | ≤ 35% | ≤ 35% | ≤ 35% | E (E is ≦35%) | E (E is ≦35%) | ≤ 35% | < 70% |  |  |  |  |  |  |  |  | CCN(CC)CCNC(=O)c1cccc(Nc2cc3c(cn2)N(C)C(=O)c2ccccc2N3C)c1OC [Compound 29]
E (E is ≦35%) | 101 to 500 nM | 75 to 90% | ≤ 35% | ≤ 35% | ≤ 35% | E (E is ≦35%) | E (E is ≦35%) | ≤ 35% | < 70% |  |  |  |  |  |  |  |  | CN1C(=O)c2ccccc2N(C)c2cc(N[C@H]3CC[C@H](O)CC3)ncc21 [Compound 33, 3-((1r,4r)-4-hydroxycyclohexylamino)-5,11-dimethyl-5H-benzo[e]pyrido[3,4-b][1,4]diazepin-10(11H)-one]

Further lines, the compound ahead of its results:

SMILES | Kinase inhibition % at indicated screening concentration: ABL or ARG (ABL or ARG; screening concentration 1.0 μM) | IC50 (ERK5) | inhibition at 1 µM (ERK5) | inhibition at 1 µM (ACK) | inhibition at 1 µM (JAK1) | inhibition at 1 µM (TAO2) | Kinase inhibition % at indicated screening concentration: AMPKa1 or AMPKa2 (AMPKa1 or AMPKa2; screening concentration 1.0 μM) | Kinase inhibition % at indicated screening concentration: AurB or AurC (AurB or AurC; screening concentration 1.0 μM) | inhibition at 1 µM (AurA) | inhibition at 10 µM [1] | Kinase inhibition % at indicated screening concentration: ABL or ARG (ABL or ARG; screening concentration 0.1 μM) | inhibition at 0.1 µM (ERK5) | inhibition at 0.1 µM (ACK) | inhibition at 0.1 µM (JAK1) | inhibition at 0.1 µM (TAO2) | Kinase inhibition % at indicated screening concentration: AMPKa1 or AMPKa2 (AMPKa1 or AMPKa2; screening concentration 0.1 μM) | Kinase inhibition % at indicated screening concentration: AurB or AurC (AurB or AurC; screening concentration 0.1 μM) | inhibition at 0.1 µM (AurA)
CCOc1cc(C(=O)Nc2ccncc2)ccc1Nc1cc2c(cn1)N(C)C(=O)c1ccccc1N2C [Compound 7] | E (E is ≦35%) | > 500 nM | 35 to 50% | ≤ 35% | ≤ 35% | ≤ 35% | E (E is ≦35%) | E (E is ≦35%) | ≤ 35% | < 70% |  |  |  |  |  |  |  | 
COc1c(Nc2cc3c(cn2)N(C)C(=O)c2ccccc2N3C)cccc1C(=O)O [Compound 9] | E (E is ≦35%) | > 500 nM | ≤ 35% | ≤ 35% | ≤ 35% | ≤ 35% | E (E is ≦35%) | E (E is ≦35%) | ≤ 35% | < 70% |  |  |  |  |  |  |  | 
CCOc1cc(C(=O)N2CCC(NC3CC3)C2)ccc1Nc1cc2c(cn1)N(C)C(=O)c1ccccc1N2C (stereo not shown) [Compound 20] |  | ≤ 50 nM |  |  |  |  |  |  |  | 70 to 85% | E (E is ≦35%) | 75 to 90% | ≤ 35% | ≤ 35% | ≤ 35% | E (E is ≦35%) | E (E is ≦35%) | ≤ 35%
